The source made the active and inactive calls. The rule behind the calls is not given here.
Columns and labels:
[1] = Stabilization of i-motif DNA (unknown origin) assessed as change in melting temperature at 22.5 uM at pH 5 in presence of DC5 by UV-based analysis
[2] = Stabilization of i-motif DNA (unknown origin) assessed as change in melting temperature at 22.5 uM at pH 4.5 in presence of DC5 by UV-based analysis
[3] = Stabilization of i-motif DNA (unknown origin) at 22.5 uM at pH 4 to 6 by CD-spectra analysis
[4] = Stabilization of i-motif DNA (unknown origin) assessed as change in melting temperature at 22.5 uM at pH 5.5 in presence of DC5 by UV-based analysis
[5] = Stabilization of i-motif DNA (unknown origin) assessed as change in melting temperature at 22.5 uM at pH 6 in presence of DC5 by UV-based analysis

ΔTm [1]: 17.9 °C
ΔTm [2]: 15.3 °C
Activity [3]: Active
ΔTm [4]: 8.85 °C
ΔTm [5]: 13.2 °C
SMILES: CC(=O)NCCN1C[C@@H](n2ccc(N)nc2=O)C[C@H]1C(=O)NCCN1C[C@@H](n2ccc(N)nc2=O)C[C@H]1C(=O)NCCN1C[C@@H](n2ccc(N)nc2=O)C[C@H]1C(=O)NCCN1C[C@@H](n2ccc(N)nc2=O)C[C@H]1C(=O)NCCN1C[C@@H](n2ccc(N)nc2=O)C[C@H]1C(=O)NCCC(N)=O
